Experimental data taken from patent US12527977B2, “Combined neuromodulation techniques” (GE Precision Healthcare LLC, priority 2021, dated 2026).

Key:
[1] = test system: Zucker diabetic fatty (ZDF) rat model; test: Chronic non-fasted blood glucose monitoring in ZDF rats, drug combined with pFUS ultrasound stimulation; format: in vivo
Source text: The following relates to the diabetic animal model used and the method of ultrasound neuromodulation. • Animal Model of Type 2 Diabetes • Zucker diabetic fatty (ZDF) rat model Adult male ZDF rats (Charles River, Kingston, NY USA) were ordered for arrival prior to 8 weeks of age. All animals were maintained on a high caloric rodent chow (Purina 5008), provided, with water, provided ad libitum. […] All procedures performed in accordance with the National Institutes of Health (NIH) Guidelines under protocols approved by the Institutional Animal Care and Use Committee (IACUC) of GE Global Research. ZDF animals were acclimated by daily handling to prevent stress-induced changes in circulating glucose. […] All rats were anesthetized at 1-4% isoflurane at 1 L/min O2. Rats were then placed on a water circulating warming pad, with a rectal thermometer probe to maintain body temperature. The abdominal area was completely shaved and the hair fully removed with Nair to allow for later stimulation of nerve plexus located in either the hepatic or GI systems. […] These locations were then marked with a permanent marker and a ultrasound stimulation probe was placed on the target area. The prototype pFUS device then delivered 3 minutes of stimulation (1.1 MHz, 150 burst cycles, 500 us burst period) Blood glucose levels of the rats were monitored on a daily basis for chronic studies and at 5-minute intervals for acute and OGTT studies. In chronic studies additional blood samples were collected on a weekly basis for the analysis of circulating markers. A final terminal blood sample was collected at the time of euthanization and used for the evaluation of circulating insulin levels. For the prototype pFUS device, stimulus (1.1 MHZ, 200 mV per pulse, 150 burst cycles, 500 us burst period) was applied to each region for 3 minutes per target. For example, pFUS was initially applied to the hepatic portal region for 3 minutes. […] There was an about 5 minute delay period in between stimulation of the first and second, or second and third anatomical target sites. Blood samples obtained from the tail vein were used to assess daily glucose (for chronic studies) and 5-minute glucose intervals (for acute studies) using a Freestyle Freedom Lite (Abbott Diabetes Inc., Alameda, CA, US). The Freestyle Freedom Light meter using a small blood 15 volume (0.3 uL) and as such no additional fluids were needed to recover total volume following blood sampling. Combination of pharmaceutical intervention and pFUS therapy was tested to determine the effects of dual therapies on therapeutic window as well as duration of efficacy. […] This dosing regimen (timing) is identical to that used in humans with dosing to occur prior to both morning and evening mealtimes. […]

[2] = test system: Zucker diabetic fatty (ZDF) rat model; settings: previously shown treatment, cited from earlier work
[3] = low dose metformin alone cohort, FIG. 9 data 304

Compound	remission after ultrasound cessation ([1]; low dose metformin added to dual-site stimulation (7 days ultrasound, then stopped), FIG. 9 data 302)	blood glucose [1, 3]	effectiveness (absolute decrease in blood glucose or length of time spent below 200 mg/dL) versus liraglutide alone [1, 3]	blood glucose reduction duration versus single site plus liraglutide cohort ([1]; low dose metformin plus single site (hepatoportal plexus) stimulus, FIG. 9 data 306)	effect in ZDF animals far along in disease progression ([2]; FGF1 icv, animals with >300 mg/dL average glucose)	remission in the ZDF model ([2]; FGF1 injection into the intracerebroventricular (icv) space)
CN(C)C(=N)N=C(N)N [Metformin]	did not result in extended remission	temporary drop below 200 mg/dL	not as effective as the liraglutide alone cohort	not as effective	–	–
FGF1: FGF1 injected into the intracerebroventricular space; previously reported treatment	–	–	–	–	failed to work	4 week
